Experimental findings from patent publication US6624185B2, “Diarylcycloalkyl derivatives, processes for their preparation and their use as pharmaceuticals” (Aventis Pharma Deutschland GmbH, priority 2001, dated 2003) are described below.

The target of the test is T1, human PPARα (Homo sapiens, UniProt Q07869).
T1 construct: expressed in transfected cells; host or cells: HEK (human embryo kidney) cells, stably transfected
T1 sequence (Q07869 1-468): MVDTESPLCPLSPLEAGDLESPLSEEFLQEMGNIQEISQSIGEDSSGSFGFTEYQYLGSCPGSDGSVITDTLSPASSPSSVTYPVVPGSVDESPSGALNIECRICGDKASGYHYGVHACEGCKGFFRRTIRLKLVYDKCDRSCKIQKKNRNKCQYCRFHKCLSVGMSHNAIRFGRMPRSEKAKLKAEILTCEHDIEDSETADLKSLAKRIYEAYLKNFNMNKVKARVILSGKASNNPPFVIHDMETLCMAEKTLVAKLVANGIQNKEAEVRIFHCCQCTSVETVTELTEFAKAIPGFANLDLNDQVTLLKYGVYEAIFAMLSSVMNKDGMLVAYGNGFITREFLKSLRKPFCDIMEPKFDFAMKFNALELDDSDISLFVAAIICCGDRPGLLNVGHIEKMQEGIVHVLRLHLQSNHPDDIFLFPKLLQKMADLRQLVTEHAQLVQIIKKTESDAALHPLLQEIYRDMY
The experiment in a line: PPARα reporter cell line assay (stably transfected HEK cells, luciferase readout, three-day test). It counts as cell-based. Particulars: agonist activity in stably transfected HEK PPARα reporter cell line, 24 h incubation, luciferase luminescence. As to the method: To analyze the effectiveness of substances which bind to human PPARα, activating it in agonistic manner, a stable transfected HEK cell line (HEK=human embryo kidney) designated here as “PPARα reporter cell line” is used.
The activity of PPARα agonists is determined in a three-day test, described below:
The PPARα reporter cell line is cultivated up to 80% confluence in DMEM medium (#41965-039, Life Technologies) with the following additives: 10% cs-FCS (fetal calf serum, #SH-30068.03, Hyclone), antibiotics (0.5 mg/ml of zeozin [#R250-01, Invitrogen], 0.5 mg/ml of G418 [#10131-019, Life Technologies], 1% penicillin streptomycin solution [#15140-031, Life Technologies]) and 2 mM of L-glutamine (#25030-032, Life Technologies). Cultivation is carried out in standard cell culture bottles (#33111, Becton Dickinson) in a cell culture incubator at 37° C. and 5% CO2. The 80% confluent cells are washed once with 30 ml of PBS (#141-090- 094, Life Technologies), treated with 2 ml of trypsin solution (#25300-054, Life Technologies) at 37° C. for 2 min, taken up in 5 ml of the medium described above and counted in a cell counter. After dilution to 500,000 cells/ml, in each case 100,000 cells are sown into each well of a 96-well microtiter plate having a clear plastic bottom (#3610, Corning Costar). The plates are incubated in a cell incubator at 37° C. and 5% CO2 for 24 h.
The PPARα agonists to be tested are dissolved in DMSO at a concentration of 10 mM. This stock solution is diluted in Phenol-Red-free DMEM medium (#21063-029, Life Technologies) to which 5% of cs-FCS (#SH-30068.03, Hyclone), 2 mM of L-glutamine (#25030-032, Life Technologies) and the antibiotics described above (zeozin, G418, penicillin and streptomycin) had been added.
Test substances are usually tested at 11 different concentrations (10 μM; 3.3 μM; 1 μM; 0.33 μM; 0,1 μM; 0.033 μM; 0.01 μM; 0.0033 μM; 0.001 μM; 0.00033 μM and 0.0001 μM). […] From each well, the medium of the PPARα reporter cell line sown on day 1 is completely removed by aspiration, and immediately, the test substances diluted in medium are added to the cells. Dilution and addition of the substances can be carried out using a robot (Beckman Biomek 2000). The end volume of the test substances diluted in medium is 100 μl per well of a 96-well plate. The DMSO concentration in the assay is always below 0.1% v/v to prevent cytotoxic effects of the solvent.
The test plates are incubated in an incubator at 37° C. and 5% CO2 for 24 h.
The PPARα receptor cells treated with the test substances are removed from the incubator and frozen at −20° C. for 1 h to improve cell lysis. After the plates have thawed (thawing at room temperature for at least 30 min), 50 μl of buffer 1 (Luc-Screen kit #LS1000, PE Biosystems Tropix) are pipetted into each well and the plates are then transferred into an apparatus for measuring luminescence, fitted with a pipetting unit (Luminoscan Ascent, LabSystems). The luciferase reaction in the measurement apparatus is started by pipetting 50 μl of buffer 2 (Luc-Screen kit #LS1000, PE Biosystems Tropix) into each well of the 96-well plate. Addition of buffer to the individual wells is carried out in defined and identical time intervals following the instructions of the manufacturer (LabSystems). All samples are measured exactly 16 min after addition of buffer 2. Measurement time is 10 sec per sample.
The crude data of the apparatus for measuring luminescence are exported into a Microsoft Excel file. Dose-activity curves and EC50 values are calculated using the program XL.Fit according to the instructions of the manufacturer (IDBS).
In the case of “2-{3-[2-(4-Fluorophenyl)oxazola4-ylmethoxy]cyclohexyloxy}-6-methylbenzoic Acid [Example I]”, the EC50 – broadly, the concentration giving half of the maximal effect – worked out at 1 nM.

For the compound `Cc1cccc(CC[C@H]2CCC[C@H](OCc3coc(-c4ccc(F)cc4)n3)C2)c1C(=O)O` (racemic) [XXIX, Rac-trans-2-(2-{3-[2-(4-Fluorophenyl)oxazol4-ylmethoxy]cyclohexyl}ethyl)-6-methylbenzoic Acid], a half-maximal effect (EC50) was put at 32 nM. Compared with the last compound, the EC50 is about 32-fold higher.

Take `Cc1cccc(COC[C@H]2CCC[C@@H](OCc3coc(-c4ccc(F)cc4)n3)C2)c1C(=O)O` (racemic) [XXV, Rac-cis-2-{3-[2-(4-Fluorophenyl)oxazol4-ylmethoxy]cyclohexylmethoxymethyl}-6-methylbenzoic Acid]: a half-maximal effect (EC50) was put at 13 nM. This EC50 is about 2.5-fold lower than that of the compound before.

On to `Cc1cccc(CC[C@@H]2CCC[C@H](OCc3coc(-c4ccc(F)cc4)n3)C2)c1C(=O)O` (racemic) [XXVIII, Rac-cis-2-(2-{3-[2-(4-Fluorophenyl)oxazol-4-ylmethoxy]cyclohexyl}ethyl)-6-methylbenzoic Acid], for which the EC50 came to 14 nM.

In turn, `Cc1ccccc1-c1nc(COC2CCCC(OCc3cccc(C)c3C(=O)O)C2)c(C)o1` (centres unmarked) [XLI, 2-{3-[2-(2-Methylphenyl)-5-methyloxazol-4-ylmethoxy]cyclohexyloxymethyl}-6-methylbenzoic Acid] displayed an EC50 of 0.6 nM.

With `COc1ccc(-c2nc(COC3CCCC(OCc4cccc(C)c4C(=O)O)C3)c(C)o2)cc1OC` (centres unmarked) [XLIII, 2-{3-[2-(3,4-Dimethoxyphenyl)-5-methyloxazol-4-ylmethoxy]cyclohexyloxymethyl}-6-methylbenzoic Acid], the response was half-maximal at 0.58 nM (EC50).

The compound `Cc1cccc(COC2CCCC(OCc3nc(-c4cccc(C#N)c4)oc3C)C2)c1C(=O)O` (centres unmarked) [XLIV, 2-{3-[2-(3-Cyanophenyl)-5-methyloxazol-4-ylmethoxy]cyclohexyloxymethyl}-6-methylbenzoic Acid] showed an EC50 of 0.93 nM. Compared with the last compound, the EC50 is about 1.6-fold higher.

Take `Cc1cccc(COC2CCCC(OCc3nc(-c4cccc(Br)c4)oc3C)C2)c1C(=O)O` (centres unmarked) [XXXII]: the concentration for a half-maximal effect (EC50) was determined as 0.97 nM.

The compound `COc1cccc(-c2nc(COC3CCCC(OCc4cccc(C)c4C(=O)O)C3)c(C)o2)c1` (centres unmarked) [XXXIV, 2-{3-[2-(3-Methoxyphenyl)-5-methyloxazol4-ylmethoxy]cyclohexyloxymethyl}-6-methylbenzoic Acid] showed an EC50 of 0.82 nM.

In turn, `Cc1cccc(COC2CCCC(OCc3nc(-c4cccc(Cl)c4)oc3C)C2)c1C(=O)O` (centres unmarked) [XXXVI, 2-{3-[2-(3-Chlorophenyl)-5-methyloxazol4-ylmethoxy]cyclohexyloxymethyl}-6-methylbenzoic Acid] gave an EC50 of 0.62 nM.

`Cc1cccc(-c2nc(COC3CCCC(OCc4cccc(C)c4C(=O)O)C3)c(C)o2)c1` (centres unmarked) [XXXVIII, 2-{3-[2-(3-Methylphenyl)-5-methyloxazol-4-ylmethoxy]cyclohexyloxymethyl}-6-methylbenzoic Acid] registered a half-maximal effective concentration (EC50) of 0.57 nM.
